The source of these data is article PMC10105652, “Resistance to ceftazidime-avibactam in a KPC-2–producing Klebsiella pneumoniae caused by the extended-spectrum beta-lactamase VEB-25” (European Journal of Clinical Microbiology & Infectious …, 2023).

The experiment has as its target T1, VEB-1 (Escherichia coli, UniProt Q7BVU7).
T1 construct: gene blaVEB; natural allele amplified and cloned in pCR-Blunt II-TOPO, E. coli Top10; crude extract
Description: cephalothin hydrolysis, UV […] nm, crude extract. In kind it is biochemical. Particulars: 100 µM cephalothin, 100 mM sodium phosphate pH 7.0, 3 min preincubation.

Where two headings read alike, the source gives them in different places.

With `NC(=O)[C@@H]1CC[C@@H]2CN1C(=O)N2OS(=O)(=O)O` [avibactam], the IC50 (read-out: AVI) was 900 nM.
For `C[C@]1(Cn2ccnn2)[C@H](C(=O)O)N2C(=O)C[C@H]2S1(=O)=O` [tazobactam], the IC50 (read-out: CLA) was 50 nM.
With `O=C(NC1CCNCC1)[C@@H]1CC[C@@H]2CN1C(=O)N2OS(=O)(=O)O` [relebactam], the IC50 (read-out: REL) amounted to 2400 nM.
For the molecule `O=C(O)C[C@@H]1CC[C@H](NC(=O)Cc2cccs2)B(O)O1` [vaborbactam], the IC50 (read-out: VAB) worked out at 1100 nM.
With `O=C(O)[C@H]1/C(=C/CO)O[C@@H]2CC(=O)N21` [clavulanic acid], under “read-out: CLA”, the IC50 stood at 50 nM.
